Results as given in patent US12157730B2, “Heteroaryl derivative, method for producing same, and pharmaceutical composition comprising same as effective component” (VORONOI INC., priority 2019, dated 2024).

Biological target: T1, Ba/F3 cell EGFR Exon20 ins NPH (Homo sapiens, UniProt P00533, INS773NPH)
T1 construct: expressed in transfected cells; host or cells: Ba/F3
Test: Ba/F3 cell proliferation suppression, EGFR Exon20 ins NPH
Format: cell-based
Conditions: GI50 class; Ba/F3 cell line with NPH inserted at Exon20 of EGFR; 72 hours
Method in brief: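 Cells (3000–5000/well) plated 24 h before compound, 12-point 3-fold dilutions at 0.3 nM to 50 um final; Ba/F3 lines grown with 5 ng/ml IL-3. Viability by CellTiter-Glo luminescence after 72 h, growth ratio vs control, GI50 from curves; triplicate.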

| Ba/F3 (NPH) Activity | Structure (SMILES) |
| --- | --- |
| A (GI50 < 50 nM) | C#Cc1cccc([C@H]2CCON2c2cc(Nc3cc(NC(=O)C=C)c(N4CCC(N(C)C)CC4)cc3OC)ncn2)c1 [compound 647, N-(2-(4-(dimethylamino)piperidine-1-yl)-5-((6-((R)-3-(3-ethynylphenyl)isoxazolidine-2-yl)pyrimidine-4-yl)amino)-4-methoxyphenyl) acrylamide] |
| A (GI50 < 50 nM) | C=CC(=O)Nc1cc(Nc2cc(N3OCC[C@@H]3c3cccc(F)c3)ncn2)c(OC)cc1N1CCC(N2CCN(C)CC2)CC1 [Example 31, N-(5-((6-((R)-3-(3-fluorophenyl)isoxazolidine-2-yl)pyrimidine-4-yl)amino)-4-methoxy-2-(4-(4-methylpiperazine-1-yl)piperidine-1-yl)phenyl) acrylamide] |
| B (50 nM ≤ GI50 < 500 nM) | C=CC(=O)Nc1cc(Nc2cc(N3OCC[C@@H]3c3ccc(C)nc3)ncn2)c(OC)cc1N1CCC(N2CCN(C(C)C)CC2)CC1 [Example 230, N-(2-(4-(4-isopropylpiperazine-1-yl)piperidine-1-yl)-4-methoxy-5-((6-((R)-3-(6-methylpyridine-3-yl)isoxazolidine-2-yl)pyrimidine-4-yl)amino)phenyl)acrylamide] |
| A (GI50 < 50 nM) | C=CC(=O)Nc1cc(Nc2cc(N3OCC[C@@H]3c3ccc(F)cc3F)ncn2)c(OC)cc1N1CCC(N2CCC(N3CCN(C)CC3)CC2)CC1 [compound 477, N-(5-((6-((R)-3-(2,4-difluorophenyl)isoxazolidine-2-yl)pyrimidine-4-yl)amino)-4-methoxy-2-(4-(4-methylpiperazine-1-yl)-[1,4'-bipiperidine]-1'-yl)phenyl)acrylamide] |
| A (GI50 < 50 nM) | C=CC(=O)Nc1cc(Nc2cc(N3OCC[C@@H]3c3cccc(C)c3F)ncn2)c(OC)cc1N1CCN(C2COC2)CC1 [compound 908, N-(5-((6-((R)-3-(2-fluoro-3-methylphenyl)isoxazolidine-2-yl)pyrimidine-4-yl)amino)-4-methoxy-2-(4-(oxetane-3-yl)piperazine-1-yl)phenyl) acrylamide] |
| A (GI50 < 50 nM) | C=CC(=O)Nc1cc(Nc2cc(N3OCC[C@@H]3c3cccc(F)c3Cl)ncn2)c(OC)cc1N1CCC(N(C)C)CC1 [compound 553, N-(5-((6-((R)-3-(2-chloro-3-fluorophenyl)isoxazolidine-2-yl)pyrimidine-4-yl)amino)-2-(4-(dimethylamino)piperidine-1-yl)-4-methoxyphenyl) acrylamide] |
| A (GI50 < 50 nM) | C=CC(=O)Nc1cc(Nc2cc(N3OCC[C@@H]3c3ccc(F)cc3F)ncn2)c(OC)cc1N1CCN(CCN(C)C)CC1 [compound 349, N-(5-((6-((R)-3-(2,4-difluorophenyl)isoxazolidine-2-yl)pyrimidine-4-yl)amino)-2-(4-(2-(dimethylamino)ethyl)piperazine-1-yl)-4-methoxyphenyl) acrylamide] |
| A (GI50 < 50 nM) | C=CC(=O)Nc1cc(Nc2cc(N3OCC[C@@H]3Cc3ccccc3)ncn2)c(OC)cc1N1CCN(C2CC2)CC1 [compound 952, N-(5-((6-((S)-3-benzylisoxazolidine-2-yl)pyrimidine-4-yl)amino)-2-(4-cyclopropylpiperazine-1-yl)-4-methoxyphenyl) acrylamide] |
| A (GI50 < 50 nM) | C=CC(=O)Nc1cc(Nc2cc(N3OCC[C@@H]3c3ccc(F)c(F)c3)ncn2)c(OC)cc1N1CCC(N(C)C)CC1 [compound 459, N-(5-((6-((R)-3-(3,4-difluorophenyl)isoxazolidine-2-yl)pyrimidine-4-yl)amino)-2-(4-(dimethylamino)piperidine-1-yl)-4-methoxyphenyl) acrylamide] |
| B (50 nM ≤ GI50 < 500 nM) | C=CC(=O)Nc1cc(Nc2cc(N3OCC[C@@H]3c3ccc(F)c(F)c3)ncn2)c(OC)cc1N1C2CC1CN(C)C2 [compound 542, N-(5-((6-((R)-3-(3,4-difluorophenyl)isoxazolidine-2-yl)pyrimidine-4-yl)amino)-4-methoxy-2-(3-methyl-3,6-diazabicyclo [3.1.1]heptane-6-yl)phenyl)acrylamide] |
| B (50 nM ≤ GI50 < 500 nM) | C=CC(=O)Nc1cc(Nc2cc(N3OCC[C@@H]3c3cccc(OC)c3)ncn2)c(OC)cc1N1CC[C@H](N2CCOCC2)C1 [compound 778, N-(4-methoxy-5-((6-((R)-3-(3-methoxyphenyl)isoxazolidine-2-yl)pyrimidine-4-yl)amino)-2-((S)-3-morpholinopyrolidine-1-yl)phenyl)acrylamide] |
| A (GI50 < 50 nM) | C=CC(=O)Nc1cc(Nc2cc(N3OCC[C@@H]3c3cccc(F)c3Cl)ncn2)c(OC)cc1N1CCC(N2C[C@@H]3CCN(C)[C@@H]3C2)CC1 [compound 448, N-(5-((6-((R)-3-(2-chloro-3-fluorophenyl)isoxazolidine-2-yl)pyrimidine-4-yl)amino)-4-methoxy-2-(4-((3aS,6aS)-1-methylhexahydropyrrolo [3,4-b]pyrrole-5(1H)-yl)piperidine-1-yl)phenyl)acrylamide] |
| A (GI50 < 50 nM) | C=CC(=O)Nc1cc(Nc2cc(N3OCC[C@@H]3c3cccc(Cl)c3)ncn2)c(OC)cc1N1CCC(N2C[C@@H](C)O[C@@H](C)C2)CC1 [compound 415, N-(5-((6-((R)-3-(3-chlorophenyl)isoxazolidine-2-yl)pyrimidine-4-yl)amino)-2-(4-((2S,6R)-2,6-dimethylmorpholino)piperidine-1-yl)-4-methoxyphenyl) acrylamide] |
| A (GI50 < 50 nM) | C=CC(=O)Nc1cc(Nc2cc(N3OCC[C@@H]3c3cccc(Cl)c3)ncn2)c(OC)cc1N1CCC(N2CC[C@@H](N(C)C)C2)CC1 [compound 413, N-(5-((6-((R)-3-(3-chlorophenyl)isoxazolidine-2-yl)pyrimidine-4-yl)amino)-2-(4-((R)-3-(dimethylamino)pyrolidine-1-yl)piperidine-1-yl)-4-methoxyphenyl) acrylamide] |
| A (GI50 < 50 nM) | C=CC(=O)Nc1cc(Nc2cc(N3OCC[C@@H]3c3cccc(Cl)c3C)ncn2)c(OC)cc1N1CCC(N2C[C@@H](C)O[C@@H](C)C2)CC1 [compound 528, N-(5-((6-((R)-3-(3-chloro-2-methylphenyl)isoxazolidine-2-yl)pyrimidine-4-yl)amino)-2-(4-((2S,6R)-2,6-dimethylmorpholino)piperidine-1-yl)-4-methoxyphenyl) acrylamide] |
| A (GI50 < 50 nM) | C=CC(=O)Nc1cc(Nc2cc(N3OCC[C@@H]3Cc3cccc(F)c3Cl)ncn2)c(OC)cc1N1CCN(C2CC2)CC1 [compound 1006, N-(5-((6-((S)-3-(2-chloro-3-fluorobenzyl)isoxazolidine-2-yl)pyrimidine-4-yl)amino)-2-(4-cyclopropylpiperazine-1-yl)-4-methoxyphenyl) acrylamide] |
| A (GI50 < 50 nM) | C=CC(=O)Nc1cc(Nc2cc(N3OCC[C@@H]3Cc3cccc(Cl)c3F)ncn2)c(OC)cc1N1CCN(C2CC2)CC1 [compound 1017, N-(5-((6-((S)-3-(3-chloro-2-fluorobenzyl)isoxazolidine-2-yl)pyrimidine-4-yl)amino)-2-(4-cyclopropylpiperazine-1-yl)-4-methoxyphenyl) acrylamide] |
| A (GI50 < 50 nM) | C=CC(=O)Nc1cc(Nc2cc(N3OCC[C@@H]3c3ccc(F)cc3)ncn2)c(OC)cc1N1CCC(N2CCN(C3COC3)CC2)CC1 [Example 85, N-(5-((6-((R)-3-(4-fluorophenyl)isoxazolidine-2-yl)pyrimidine-4-yl)amino)-4-methoxy-2-(4-(4-(oxetane-3-yl)piperazine-1-yl)piperidine-1-yl)phenyl) acrylamide] |
| A (GI50 < 50 nM) | C=CC(=O)Nc1cc(Nc2cc(N3OCC[C@@H]3c3cccc(Cl)c3)ncn2)c(OC)cc1N1CCN(CC)CC1 [compound 411, N-(5-((6-((R)-3-(3-chlorophenyl)isoxazolidine-2-yl)pyrimidine-4-yl)amino)-2-(4-ethylpiperazine-1-yl)-4-methoxyphenyl) acrylamide] |
| A (GI50 < 50 nM) | C=CC(=O)Nc1cc(Nc2cc(N3OCC[C@@H]3c3ccc4ccccc4c3)ncn2)c(OC)cc1N1CCC(N2C[C@@H]3C[C@H]2CO3)CC1 [compound 512, N-(2-(4-((1S,4S)-2-oxa-5-azabicyclo[2.2.1]heptane-5-yl)piperidine-1-yl)-4-methoxy-5-((6-((R)-3-(naphthalene-2-yl)isoxazolidine-2-yl)pyrimidine-4-yl)amino)phenyl)acrylamide] |
| A (GI50 < 50 nM) | C=CC(=O)Nc1cc(Nc2cc(N3OCC[C@@H]3Cc3cccc(Cl)c3Cl)ncn2)c(OC)cc1N1CCC(N2CCOCC2)CC1 [compound 979, N-(5-((6-((S)-3-(2,3-dichlorobenzyl)isoxazolidine-2-yl)pyrimidine-4-yl)amino)-4-methoxy-2-(4-morpholinopiperidine-1-yl)phenyl)acrylamide] |
| A (GI50 < 50 nM) | C=CC(=O)Nc1cc(Nc2cc(N3OCC[C@@H]3c3cccc(C(F)(F)F)c3)ncn2)c(OC)cc1N1CCC(N(C)C)CC1 [compound 451, N-(2-(4-(dimethlamino)piperidine-1-yl)-4-methoxy-5-((6-((R)-3-(3-(trifluoromethyl)phenyl)isoxazolidine-2-yl)pyrimidine-4-yl)amino)phenyl) acrylamide] |
| A (GI50 < 50 nM) | C=CC(=O)Nc1cc(Nc2cc(N3OCC[C@@H]3c3cccc(Cl)c3Cl)ncn2)c(OC)cc1N1CCC(N2CCOCC2)CC1 [compound 521, N-(5-((6-((R)-3-(2,3-dichlorophenyl)isoxazolidine-2-yl)pyrimidine-4-yl)amino)-4-methoxy-2-(4-morpholinopiperidine-1-yl)phenyl)acrylamide] |
| A (GI50 < 50 nM) | C=CC(=O)Nc1cc(Nc2cc(N3OCC[C@@H]3c3ccccc3)ncn2)c(OC)cc1N1CCN(C2CCCC2)CC1 [Example 279, N-(2-(4-cyclopentylpiperazine-1-yl)-4-methoxy-5-((6-((R)-3-phenylisoxazolidine-2-yl)pyrimidine-4-yl)amino)phenyl) acrylamide] |
